PubChem BioAssay (NCI)
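Assay format: 96-well plates, 48-hour exposure. TGI denotes the concentration required for complete inhibition of growth.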

Columns and labels:
Test in all cases: NCI-60 cell line screen, 48 h
NCI-H226 lung = test system: NCI-H226 lung
HOP-18 NSCLC = test system: HOP-18 NSCLC
SF-295 CNS = test system: SF-295 CNS
UO-31 renal = test system: UO-31 renal
ACHN renal = test system: ACHN renal
DMS 114 small cell lung = test system: DMS 114 small cell lung
SK-MEL-2 melanoma = test system: SK-MEL-2 melanoma
OVCAR-3 ovarian = test system: OVCAR-3 ovarian
UACC-257 melanoma = test system: UACC-257 melanoma
SN12C renal = test system: SN12C renal
KM20L2 colon = test system: KM20L2 colon
HL-60(TB) leukemia = test system: HL-60(TB) leukemia
M19-MEL melanoma = test system: M19-MEL melanoma
EKVX NSCLC = test system: EKVX NSCLC
KM12 colon = test system: KM12 colon
SNB-19 CNS = test system: SNB-19 CNS
OVCAR-4 ovarian = test system: OVCAR-4 ovarian
OVCAR-8 ovarian = test system: OVCAR-8 ovarian
LOX IMVI melanoma = test system: LOX IMVI melanoma
CCRF-CEM leukemia = test system: CCRF-CEM leukemia
HCT-15 colon = test system: HCT-15 colon
M14 melanoma = test system: M14 melanoma
SNB-75 CNS = test system: SNB-75 CNS
SK-OV-3 ovarian = test system: SK-OV-3 ovarian
A549 NSCLC = test system: A549 NSCLC
HCC-2998 colon = test system: HCC-2998 colon
SF-268 CNS = test system: SF-268 CNS
RPMI-8226 leukemia = test system: RPMI-8226 leukemia
A498 renal = test system: A498 renal
HCT-116 colon = test system: HCT-116 colon
DMS 273 small cell lung = test system: DMS 273 small cell lung
SR leukemia = test system: SR leukemia
NCI-H460 lung = test system: NCI-H460 lung
HT29 colon = test system: HT29 colon
DLD-1 colon = test system: DLD-1 colon
UACC-62 melanoma = test system: UACC-62 melanoma
NCI-H23 lung = test system: NCI-H23 lung
MALME-3M melanoma = test system: MALME-3M melanoma
NCI-H522 lung = test system: NCI-H522 lung
K-562 leukemia = test system: K-562 leukemia
786-0 renal = test system: 786-0 renal
IGROV1 ovarian = test system: IGROV1 ovarian
SNB-78 CNS = test system: SNB-78 CNS
SK-MEL-5 melanoma = test system: SK-MEL-5 melanoma
COLO 205 colon = test system: COLO 205 colon
HOP-92 NSCLC = test system: HOP-92 NSCLC
SK-MEL-28 melanoma = test system: SK-MEL-28 melanoma
CAKI-1 renal = test system: CAKI-1 renal
HOP-62 NSCLC = test system: HOP-62 NSCLC
RXF 393 renal = test system: RXF 393 renal
TK-10 renal = test system: TK-10 renal
SW-620 colon = test system: SW-620 colon
U251 CNS = test system: U251 CNS
MOLT-4 leukemia = test system: MOLT-4 leukemia
SF-539 CNS = test system: SF-539 CNS
XF 498 CNS = test system: XF 498 CNS
LXFL 529 NSCLC = test system: LXFL 529 NSCLC
OVCAR-5 ovarian = test system: OVCAR-5 ovarian

For `N#CC(=Nc1ccccc1N(C(=O)c1ccccc1)C(=O)c1ccccc1)c1ccccc1`, which TGI (NCI-H226 lung) is on record?
Its TGI is over 100 µM.

And the TGI (HOP-18 NSCLC)?
Its TGI is over 100 µM.

What about the TGI (SF-295 CNS) of the same compound?
The TGI was over 100 µM.

And the TGI (UO-31 renal)?
Its TGI is over 100 µM.

And the TGI (ACHN renal)?
Its TGI is over 100 µM.

What about the TGI (DMS 114 small cell lung) of the same compound?
Its TGI is over 48.8 µM.

What about the TGI (SK-MEL-2 melanoma) of the same compound?
Its TGI is over 100 µM.

And the TGI (OVCAR-3 ovarian)?
Its TGI is over 100 µM.

What about the TGI (UACC-257 melanoma) of the same compound?
The TGI was over 100 µM.

What about the TGI (SN12C renal) of the same compound?
Its TGI is over 100 µM.

And the TGI (KM20L2 colon)?
Its TGI is over 100 µM.

And the TGI (HL-60(TB) leukemia)?
Its TGI is over 41.1 µM.

And the TGI (M19-MEL melanoma)?
Its TGI is over 100 µM.

What about the TGI (EKVX NSCLC) of the same compound?
Its TGI is over 100 µM.

What about the TGI (KM12 colon) of the same compound?
The TGI was over 70.9 µM.

What about the TGI (SNB-19 CNS) of the same compound?
Its TGI is over 54.9 µM.

What about the TGI (OVCAR-4 ovarian) of the same compound?
The TGI was over 76.2 µM.

What about the TGI (OVCAR-8 ovarian) of the same compound?
The TGI was over 100 µM.

What about the TGI (LOX IMVI melanoma) of the same compound?
Its TGI is over 100 µM.

And the TGI (CCRF-CEM leukemia)?
The TGI was over 31.2 µM.

And the TGI (HCT-15 colon)?
Its TGI is over 90.3 µM.

And the TGI (M14 melanoma)?
Its TGI is over 100 µM.

And the TGI (SNB-75 CNS)?
The TGI was over 100 µM.

And the TGI (SK-OV-3 ovarian)?
Its TGI is over 100 µM.

What about the TGI (A549 NSCLC) of the same compound?
The TGI was over 48.8 µM.

What about the TGI (HCC-2998 colon) of the same compound?
The TGI was over 100 µM.

And the TGI (SF-268 CNS)?
The TGI was over 100 µM.

And the TGI (RPMI-8226 leukemia)?
The TGI was over 81.4 µM.

What about the TGI (A498 renal) of the same compound?
The TGI was over 100 µM.

What about the TGI (HCT-116 colon) of the same compound?
The TGI was over 44.8 µM.

What about the TGI (DMS 273 small cell lung) of the same compound?
The TGI was over 100 µM.

And the TGI (SR leukemia)?
Its TGI is 24.2 µM.

And the TGI (NCI-H460 lung)?
The TGI was over 100 µM.

What about the TGI (HT29 colon) of the same compound?
Its TGI is over 100 µM.

What about the TGI (DLD-1 colon) of the same compound?
The TGI was over 100 µM.

And the TGI (UACC-62 melanoma)?
The TGI was over 100 µM.

And the TGI (NCI-H23 lung)?
Its TGI is over 100 µM.

And the TGI (MALME-3M melanoma)?
Its TGI is over 100 µM.

What about the TGI (NCI-H522 lung) of the same compound?
Its TGI is over 100 µM.

And the TGI (K-562 leukemia)?
The TGI was over 60.9 µM.

And the TGI (786-0 renal)?
The TGI was over 100 µM.

And the TGI (IGROV1 ovarian)?
Its TGI is over 100 µM.

And the TGI (SNB-78 CNS)?
Its TGI is over 100 µM.

And the TGI (SK-MEL-5 melanoma)?
The TGI was over 100 µM.

And the TGI (COLO 205 colon)?
Its TGI is over 64.6 µM.

What about the TGI (HOP-92 NSCLC) of the same compound?
The TGI was over 93.3 µM.

And the TGI (SK-MEL-28 melanoma)?
Its TGI is over 100 µM.

And the TGI (CAKI-1 renal)?
The TGI was over 100 µM.

What about the TGI (HOP-62 NSCLC) of the same compound?
Its TGI is over 100 µM.

And the TGI (RXF 393 renal)?
The TGI was over 39.3 µM.

And the TGI (TK-10 renal)?
Its TGI is over 100 µM.

What about the TGI (SW-620 colon) of the same compound?
The TGI was over 62.2 µM.

And the TGI (U251 CNS)?
Its TGI is over 100 µM.

What about the TGI (MOLT-4 leukemia) of the same compound?
The TGI was over 100 µM.

And the TGI (SF-539 CNS)?
Its TGI is over 100 µM.

What about the TGI (XF 498 CNS) of the same compound?
Its TGI is over 100 µM.

What about the TGI (LXFL 529 NSCLC) of the same compound?
The TGI was over 100 µM.

And the TGI (OVCAR-5 ovarian)?
The TGI was over 100 µM.
